Test results: patent publication US12351565B2, “Aromatic compound and preparation method therefor and use thereof” (SHANGHAI JIANHE PHARMACEUTICAL & TECHNOLOGY CO. LTD., priority 2018, dated 2025)
Where a name gives a salt, the structure may show the parent alone. Read-outs that look alike come from different tables or passages of the source.

How the values were obtained:
C57 mice [1] = experiment: Forced swimming experiment, intraperitoneal administration to mice; assay type: in vivo; conditions: for inhibition in vivo at 10 mg/kg: Mus musculus, ip
Method: The forced-swimming test is currently the most widely used classic method to evaluate the antidepressant effects of compounds in rodents. […] The time in immobile state of experimental animal is observed and recorded, which can be used to evaluate the effect of antidepressant compounds.
1 h and 24 h after a single intraperitoneal administration of 10 mg/kg, forced swimming tests were respectively carried out to investigate the effects of different compounds on depression-like behaviors of C57 mice.
(§1) Experimental animals were 6-week aged C57 mice, male, and C57 mice were purchased from Shanghai SLAC Laboratory Animal Co., Ltd., with a body weight of 20.45±0.19 g. Before the experiment, they arrived at the Animal Feeding Center of Shanghai Institute of Materia Medica, Chinese Academy of Sciences (Animal Production License: SCXK9[Shanghai]2004-0002, usage license: SYXK[Shanghai]2003-0029), and adapted for 3 days or more in animal facilities. They were bred at 6 animals/cage. The breeding environment was room temperature 23±0.2° C., with 12/12 hours alternation of day and night. Before the behavioral test, the animals should be moved to the behavioral test operation room 2 hours in advance to adapt to the environment and reduce their tension.
Preparation of the test product: each test compound was accurately weighed and dissolved in 0.9% NaCl solution, mixed thoroughly, and prepared as a 1 mg/ml solution, set aside.
(§2) 24 hours before the administration, the mice were placed in a cylindrical tank to adapt to the aquatic environment for 10 min. On the day of the behavioral test, the animals were respectively administered intraperitoneally once at 1 h and 24 h before the behavioral test. The mice were placed individually into a cylindrical glass tank with a height of 30 cm and a diameter of 20 cm. The water depth in the tank was 15 cm, so that the animals could not escape from the glass tank and their feet and tails could not touch the bottom of the tank, the water temperature was 23° C.-25° C. A 6 minute video was taken after the mouse entered into water. Since most animals were very active in the first two minutes, the immobility time in the following 4 minute were calculated (criterion of immobility: the mouse stops struggling in the water, stays still and has small limbs movement to maintain balance or to keep a floating state).
(§3) The antidepressant effect of a compound was evaluated by the ability of the compound to reduce the immobility time of the animal in the forced swimming test as compared with the blank group. The shorter the immobility time of the animal to be tested, the higher the inhibition rate and the stronger the antidepressant activity. Inhibition rate1 h(%)=immobility time(blank, 1 h)−immobility time(administration, 1 h)/immobility time(blank, 1 h)×100% Inhibition rate24 h(%)=immobility time(blank, 24 h)−immobility time(administration, 24 h)/immobility time(blank, 24 h)×100%

C57 mice [2] = experiment: Forced swimming experiment, oral administration to mice; assay type: in vivo; conditions: for 1 h inhibition rate / 24 h inhibition rate: inhibition of immobility time, C57 mice; for 1 h inhibition rate: forced swimming 1 h after single oral (intragastric) 20 mg/kg; for 24 h inhibition rate: forced swimming 24 h after single oral (intragastric) 20 mg/kg
Method: 1 h and 24 h after a single oral administration of 20 mg/kg, forced swimming experiments were then carried out to investigate the effects of different compounds on depression-like behavior in C57 mice.
as §1, with “male,” for “male, and”
Preparation of the test product: each test compound was accurately weighed and dissolved in 0.9% NaCl solution, mixed thoroughly, and prepared into 1 mg/ml and 2 mg/ml solutions respectively, and set aside.
as §2, with “intragastrically” for “intraperitoneally”
as §3, with “group.” for “group. The shorter the immobility time of the animal to be tested, the higher the inhibition rate and the stronger the antidepressant activity.”, “rate24h(%)=immobility” for “rate24 h(%)=immobility”

[3] = 1 h, read-out: 1 h inhibition rate
[4] = 24 h, read-out: 24 h inhibition rate

SMILES | inhibition in vivo at 10 mg/kg (C57 mice [1]; [3]) [%] | inhibition in vivo at 10 mg/kg (C57 mice [1]; [4]) [%] | 1 h inhibition rate (C57 mice [2]) [%] | 24 h inhibition rate (C57 mice [2]) [%] | other results
Cl.NC1(c2cc(F)ccc2F)CCCC(O)C1=O (stereo not shown) [Comparative compound 1, reference compound] | 17.4 | 10.6 | – | – | 1 h inhibition rate (C57 mice [1]; inhibition of immobility time, forced swimming 1 h after single intraperitoneal 10 mg/kg, C57 mice): 17.4 ± 0.2%; 24 h inhibition rate (C57 mice [1]; inhibition of immobility time, forced swimming 24 h after single intraperitoneal 10 mg/kg, C57 mice): 10.6 ± 1.2%
CNC1(c2cccc(OC(F)(F)F)c2)CCCC(O)C1=O (stereo not shown) [Compound 39, 6-hydroxy-2-methylamino-2-(3-trifluoromethoxyphenyl)cyclohexane-1-one hydrochloride] | 46.6 ± 1 | 49.1 ± 3.7 | – | – | –
N#Cc1cccc(C2(N)CCCC(O)C2=O)c1 (stereo not shown) [Compound 53, 3-(1-amino-3-hydroxy-2-oxocyclohexane)benzonitrile trifluoroacetate] | 50.9 ± 2 | 39.6 ± 3.2 | – | – | –
Cl.NC1(c2cccc(OC(F)(F)F)c2F)CCCC(O)C1=O (stereo not shown) [Compound 59, 2-amino-2-(2-fluoro-3-(trifluoromethoxy)phenyl)-6-hydroxycyclohexane-1-one hydrochloride] | 32 ± 2.2 | 40.3 ± 4.9 | 28.6 ± 1.8 | 36.1 ± 1.6 | –
Cl.N[C@]1(c2cccc(OC(F)(F)F)c2F)CCC[C@H](O)C1=O [Compound 65, (2S,6S)-2-amino-2-(2-fluoro-3-(trifluoromethoxy)phenyl)-6-hydroxycyclohexane-1-one hydrochloride] | – | – | 23.8 ± 0.6 | 32.0 ± 2.9 | –
NC1(c2c(F)ccc(F)c2F)CCCC(O)C1=O (stereo not shown) [Compound 71, 2-amino-6-hydroxy-2-(2,3,6-trifluorophenyl)cyclohexane-1-one hydrochloride] | 24.2 ± 4.7 | 57.4 ± 4.4 | – | – | –
CNCCC(Oc1ccc(C(F)(F)F)cc1)c1ccccc1 (stereo not shown) [Fluoxetine, fluoxetine, reference compound] | – | – | 2.2 ± 1.2 | 1.8 ± 1.3 | antidepressant effect in the forced swimming experiment (C57 mice [1]; 1 hour and 24 hours, intraperitoneal 10 mg/kg, in words): no obvious antidepressant effect; inhibition in vivo at 10 mg/kg (C57 mice [1]; inhibition of immobility time, forced swimming 1 h after single intraperitoneal 10 mg/kg, C57 mice, read-out: 1 h inhibition rate): -4.6 ± 2.3%; inhibition in vivo at 10 mg/kg (C57 mice [1]; inhibition of immobility time, forced swimming 24 h after single intraperitoneal 10 mg/kg, C57 mice, read-out: 24 h inhibition rate): 4.6 ± 1.8%; antidepressant effect in the forced swimming experiment (C57 mice [2]; 1 hour and 24 hours, oral administration, in words): no antidepressant effect was shown
